Test results from US20230173004A1, “Method and Composition for Treating Ringworm on Biotic and Abiotic Surfaces” (Jeneil Biosurfactant Company, LLC, priority 2021, published 2023).

Test system: ringworm infection
Assay: Treatment of ringworm infections on the skin of volunteer patients
Assay type: in vivo, human
Settings: twin teenage boys; prescribed oral treatment
Method: The effectiveness of Composition A in treating fungal infections on the skin was determined on volunteer patients. In a first case, twin teenage boys were experiencing ringworm infections on the face, scalp, and neck. […] For […], the ringworm sores on […] face were treated by directly applying Composition A to the sores.
The other teenage child was treated with a 100% solution of Composition A by dabbing it on the sores of their scalp and neck using a cotton swab twice a day over the course of 3 days. Various sores were treated over the next four to seven days with a diluted solution of Composition A. In particular, a few drops of Composition A were diluted with 10 drops of water, and the diluted solution was applied to the sores. […] Thereafter, a 1:100 solution of Composition A in water was used as a preventative treatment on the scalp prior to showering to avoid new ringworm infections.
Thus, in a second test case, Composition A was used to treat a ringworm infection on the neck and shoulder region of a teenage child. Composition A was formulated with an aloe vera clear cream at a 2% w/v.
In a third case, a middle-aged person was experiencing a significant ringworm infection on one foot. The ringworm infection was treated with Composition A in an aloe vera clear cream at 2% w/v.

## OC(Cn1cncn1)(Cn1cncn1)c1ccc(F)cc1F [oral fluconazole, fluconazole]
  ringworm infections on face, scalp and neck: ineffective at completely eradicating the ringworm infection
